We go through ten molecules from ChEMBL document CHEMBL1201862, “PubChem BioAssay data set” (2004).

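Results reflect a 48-hour exposure of cells in 96-well plates to compound at five concentrations. GI50: concentration for 50% inhibition of growth.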 The source made the active and inactive calls. Rule as the data show it: active = GI50 up to about 1.1 µM and inactive = higher.

What all share (assay): NCI anticancer screen, dose series, 48 h
The subject of assay [1] is EKVX.
Assay [2] has as its system HCC 2998.
The test system of assay [3] is HCT-116.
The subject of assay [4] is HCT-15.
Assay [5] deals with IGROV-1.
Assay [6] concerns K562.
Assay [7] concerns MDA-MB-435.
Assay [8] relates to MDA-N.
Assay [9] deals with NCI-H23.
For assay [10], the system named is NCI-H460.
Assay [11] deals with NCI-H522.
The test system of assay [12] is NCI/ADR-RES.
In assay [13] the test system is PC-3.
Assay [14] has as its system SK-OV-3.
Assay [15] relates to SNB-75.
Assay [16] has as its system SR.
Assay [17] relates to TK-10.
For assay [18], the system named is U-251.
The subject of assay [19] is UACC-257.
In assay [20] the test system is UO-31.

For the molecule `CC1=NN(c2cccc(Cl)c2)C2(C1)C(Cl)C(=O)N2c1nc2ccccc2s1` (stereo not given), the GI50 is 45.5 µM (inactive) in assay [1]; 55.1 µM (inactive) in assay [2]; 19.2 µM (inactive) in assay [3]; 28.8 µM in [4]; 21.8 µM (inactive) in assay [5]; 16.2 µM (inactive) in [6]. Moreover, the GI50 was 25.6 µM (inactive) in [7]; 29.2 µM (inactive) in [8]; 19.7 µM (inactive) in assay [9]; 36.6 µM (inactive) in assay [10]; 21.8 µM (inactive) in assay [11]; 25.4 µM (inactive) in assay [12]. For the same molecule, the GI50 is 22.6 µM (inactive) in [13]; 28 µM (inactive) in assay [14]; 21.6 µM (inactive) in assay [15]; 15.2 µM (inactive) in assay [16]; 90.2 µM (inactive) in assay [17]; 23.9 µM (inactive) in assay [18]. Also, the GI50 was 42.1 µM (inactive) in assay [19] and 19.3 µM (inactive) in assay [20].
In the case of `COC(=O)C1(Cc2ccc3c(c2)CCC3)Cc2cc3c(cc2C1=O)CCC3` (stereo not given), the GI50 in assay [1] was 21.3 µM (inactive); in assay [2] it was 22.1 µM (inactive); in [3] it was 11.4 µM (inactive); in assay [4], 26.5 µM; in assay [5] it was 24.4 µM (inactive); in assay [6], 8.93 µM (inactive). Moreover, the GI50 in [7] is 13.3 µM (inactive); in assay [8], 13 µM (inactive); in [9], 22 µM (inactive); in [10] it was 15.3 µM (inactive); in [11] it was 8.85 µM (inactive); in [12] it was 13.4 µM (inactive). In addition, the GI50 in assay [13] is 17.9 µM (inactive); in assay [14] it was > 46.5 µM (inactive); in [15], 42.2 µM (inactive); in assay [16], 11.4 µM (inactive); in [17] it was > 46.5 µM (inactive); in assay [18], 29.4 µM (inactive). For the same molecule, the figures for the GI50 in [19] and in assay [20] were 16.4 µM (inactive) and 16 µM (inactive), respectively.
On to `CC1=NN2C(=N)/C(=C/c3ccc(F)cc3)C(=O)N=C2S1`, for which the GI50 was > 100 µM (inactive) in assay [1]; 44.4 µM (inactive) in [2]; > 100 µM (inactive) in [3]; more than 100 µM in assay [4]; > 100 µM (inactive) in assay [5]; > 100 µM (inactive) in [6]. For the same molecule, the GI50 in assay [7] was > 100 µM (inactive); in assay [8], > 100 µM (inactive); in assay [9], > 100 µM (inactive); in assay [10], > 100 µM (inactive); in [11] it was > 100 µM (inactive); in assay [12], 13 µM (inactive). Besides, the GI50 was > 100 µM (inactive) in [13]; > 100 µM (inactive) in assay [14]; > 100 µM (inactive) in assay [15]; 69.8 µM (inactive) in [16]; > 100 µM (inactive) in assay [17]; > 100 µM (inactive) in [18]. Moreover, the GI50 in [19] and in assay [20] was > 100 µM (inactive) in each case.
Turning to `Cc1cc(C)c2c(c1)CC1(Cc3c(ccc(C)c3C)C1=O)C2=O` (stereo not given), the GI50 is > 100 µM (inactive) in assay [1]; > 100 µM (inactive) in [2]; > 100 µM (inactive) in [3]; more than 100 µM in assay [4]; > 100 µM (inactive) in assay [5]; > 100 µM (inactive) in [6]. The GI50 in [7], in assay [8], in assay [9], in assay [10], in assay [11] and in [12] was > 100 µM (inactive) in each case. In addition, the GI50 in [13], in [14], in [15], in [16], in assay [17] and in [18] was > 100 µM (inactive) each time. The GI50 in assay [19] and in [20] was > 100 µM (inactive) in each case.
As to `N#CCCCC[N+]12CN3CN(CN(C3)C1)C2`, the GI50 in assay [1] is > 100 µM (inactive); in assay [2], > 100 µM (inactive); in assay [3] it was > 100 µM (inactive); in [4] it was more than 100 µM; in [5] it was > 100 µM (inactive); in assay [6] it was > 100 µM (inactive). Further, the GI50 in assay [7], in [8], in [9], in assay [10], in [11] and in [12] was > 100 µM (inactive) each time. Further, the GI50 in assay [13] was > 100 µM (inactive); in [14] it was > 100 µM (inactive); in assay [15] it was > 100 µM (inactive); in assay [16], 30.8 µM (inactive); in assay [17], > 100 µM (inactive); in assay [18] it was > 100 µM (inactive). The GI50 in assay [19] and in [20] was > 100 µM (inactive) each time.
As to `Nc1c([N+](=O)[O-])cc2c3c(cccc13)CC2`, the GI50 is 26.7 µM (inactive) in assay [1]; > 100 µM (inactive) in [2]; 39.1 µM (inactive) in assay [3]; 65.9 µM in assay [4]; > 100 µM (inactive) in [5]; > 100 µM (inactive) in [6]. The GI50 in assay [7] is 62.5 µM (inactive); in assay [8] it was > 100 µM (inactive); in assay [9], 55 µM (inactive); in assay [10], 54.1 µM (inactive); in [11], 93.8 µM (inactive); in [12] it was 40.8 µM (inactive). Further, the GI50 in [13] was > 100 µM (inactive); in [14], 51.2 µM (inactive); in [15] it was > 100 µM (inactive); in [16], 25.4 µM (inactive); in assay [17], 42.8 µM (inactive); in [18], 91 µM (inactive). The GI50 in assay [19] is > 100 µM (inactive); in assay [20], 42.5 µM (inactive).
Consider `CC(C)Cc1ccc(C(C)/C=C2\CCC(CN(C)C)C2=O)cc1` (stereo not given), for which the GI50 in [1] is 19.9 µM (inactive); in assay [2], 16.8 µM (inactive); in assay [3], 7.05 µM (inactive); in [4], 9.18 µM; in [5], 9.73 µM (inactive); in assay [6] it was 2.86 µM (inactive). Moreover, the GI50 is 7.16 µM (inactive) in assay [7]; 10.2 µM (inactive) in assay [8]; 12.6 µM (inactive) in assay [9]; 20 µM (inactive) in [10]; 7.31 µM (inactive) in [11]; 5.89 µM (inactive) in [12]. For the same molecule, the GI50 in assay [13] was 10.5 µM (inactive); in assay [14], 19.5 µM (inactive); in assay [15], 14.1 µM (inactive); in [16], 3.2 µM (inactive); in assay [17], 9.23 µM (inactive); in [18], 16.7 µM (inactive). Also, the GI50 was 14.8 µM (inactive) in [19] and 10.9 µM (inactive) in assay [20].
`NC(Cc1ccnnc1)C(=O)O` (stereo not given): the GI50 was > 100 µM (inactive) in assay [1]; > 100 µM (inactive) in assay [2]; > 100 µM (inactive) in assay [3]; more than 100 µM in assay [4]; > 100 µM (inactive) in assay [5]; > 100 µM (inactive) in assay [6]. For the same molecule, the GI50 in [7], in [8], in assay [9], in assay [10], in assay [11] and in assay [12] was > 100 µM (inactive) throughout. For the same molecule, the GI50 in assay [13], in assay [14], in [15], in assay [16], in assay [17] and in assay [18] was > 100 µM (inactive) in each case. The GI50 in assay [19] and in [20] was > 100 µM (inactive) throughout.
With `Nc1nc(Cl)c(C=O)c(NCC2(CO)CC(CCc3ccccc3)C2)n1` (stereo not given), the GI50 was 3.94 µM (inactive) in assay [1]; 1.88 µM (inactive) in [2]; 13.7 µM (inactive) in assay [3]; 4.18 µM in assay [4]; 1.74 µM (inactive) in assay [5]; 1.88 µM (inactive) in [6]. Moreover, the GI50 was 5.73 µM (inactive) in assay [7]; 6.59 µM (inactive) in [8]; 2.29 µM (inactive) in assay [9]; 16.7 µM (inactive) in assay [10]; 1.71 µM (inactive) in [11]; 16.2 µM (inactive) in assay [12]. Further, the GI50 is 6.43 µM (inactive) in [13]; 11.3 µM (inactive) in [14]; 18.7 µM (inactive) in [15]; 1.87 µM (inactive) in [16]; 15.2 µM (inactive) in assay [17]; 13.6 µM (inactive) in [18]. The results for the GI50 in assay [19] and in assay [20] were 3.08 µM (inactive) and 1.48 µM (inactive), respectively.
On to `COCC#C[C@@]1(O)CCCCC1CC(OC)OC` (stereo not given in full), for which the GI50 was > 100 µM (inactive) in assay [1]; > 100 µM (inactive) in assay [2]; 81.8 µM (inactive) in [3]; 76.2 µM in assay [4]; 48.1 µM (inactive) in [5]; 49.7 µM (inactive) in [6]. Further, the GI50 is 62.7 µM (inactive) in assay [7]; > 100 µM (inactive) in assay [8]; > 100 µM (inactive) in assay [9]; > 100 µM (inactive) in assay [10]; 24.7 µM (inactive) in assay [11]; > 100 µM (inactive) in assay [12]. In addition, the GI50 is > 100 µM (inactive) in assay [13]; > 100 µM (inactive) in [14]; > 100 µM (inactive) in assay [15]; 40.3 µM (inactive) in assay [16]; > 100 µM (inactive) in assay [17]; > 100 µM (inactive) in assay [18]. The GI50 in [19] and in assay [20] was > 100 µM (inactive) in each case.
